These results are taken from ChEMBL document CHEMBL3244225, “Synthesis and biological activity of some vinyl-substituted 2-nitroimidazoles” (J Med Chem, 1977).

Converted amounts (≈) assume the structure as drawn. The source made the active and inactive calls. Some results are limits rather than exact numbers.

Data set [1] has as its system Trichomonas vaginalis. Nature of the data set: Trichomonastatic activity against Trichomonas vaginalis by tube dilution method. The data set is classed as functional.
Data set [2] in a line: Toxicity in po dosed mouse infected with Trichomonas vaginalis. In kind it is organism-based. The following applies: in vivo.
In data set [3] the test system is Pseudomonas aeruginosa. Nature of the data set: Antimicrobial activity against Pseudomonas aeruginosa ATCC 10145 by tube dilution method. The data set is classed as functional.
For data set [4], the system named is Salmonella typhimurium. Nature of the data set: Antimicrobial activity against Salmonella typhimurium Kh by tube dilution method. In kind it is functional, Salmonella enterica subsp. enterica serovar Typhimurium. Conditions: Salmonella enterica.
Data set [5] relates to Escherichia coli. Nature of the data set: Antimicrobial activity against Escherichia coli SKF 12140 by tube dilution method. The data set is classed as functional.
The test system of data set [6] is Streptococcus pneumoniae. Nature of the data set: Antimicrobial activity against Diplococcus pneumoniae UC41 by tube dilution method. The data set is classed as functional.
Data set [7] has as its system Trichomonas vaginalis. Nature of the data set: Ratio of metronidazole ED50 to compound ED50 for Trichomonas vaginalis infected in sc dosed mouse. The data set is classed as functional.
For data set [8], the system named is Staphylococcus aureus. Nature of the data set: Antimicrobial activity against Staphylococcus aureus Tour by tube dilution method. The data set is classed as functional.
Data set [9] can be described thus: Toxicity in po dosed mouse infected with Escherichia coli. In kind it is organism-based. Conditions: in vivo.
The subject of data set [10] is Escherichia coli. Nature of the data set: Antimicrobial activity against Escherichia coli infected in mouse at 250 mg/kg, po. The data set is classed as functional, organism-based. Also noted: dose 250 mg/kg.
In data set [11] the test system is Klebsiella pneumoniae. Nature of the data set: Antimicrobial activity against Klebsiella pneumoniae I.S.M. by tube dilution method. The data set is classed as functional.
The test system of data set [12] is Shigella sonnei. Nature of the data set: Antimicrobial activity against Shigella sonnei ATCC 9290 by tube dilution method. In kind it is functional.
Data set [13] has as its system Streptococcus pyogenes. Nature of the data set: Antimicrobial activity against Streptococcus haemolyticus C 203 by tube dilution method. In kind it is functional.
In data set [14] the test system is Trichomonas vaginalis. Nature of the data set: Trichomonacidal activity against Trichomonas vaginalis by tube dilution method. In kind it is functional.
Data set [15] relates to Mycoplasmoides gallisepticum. Nature of the data set: Antimicrobial activity against Mycoplasma gallisepticum H21 C.Z.B. by tube dilution method. The data set is classed as functional.
Data set [16] has as its system Candida albicans. Nature of the data set: Antimicrobial activity against Candida albicans SKF 2270 by tube dilution method. In kind it is functional.
The test system of data set [17] is Trichophyton mentagrophytes. Nature of the data set: Antimicrobial activity against Trichophyton mentagrophytes SKF 17410 by tube dilution method. The data set is classed as functional.
For data set [18], the system named is Proteus vulgaris. Nature of the data set: Antimicrobial activity against Proteus vulgaris X19 H ATCC 881 by tube dilution method. In kind it is functional.
Data set [19] is described as follows: Toxicity in sc dosed mouse infected with Escherichia coli. In kind it is organism-based. Conditions: in vivo.
For data set [20], the system named is Mycobacterium tuberculosis. Nature of the data set: Antimicrobial activity against Mycobacterium tuberculosis ATCC 9360 by tube dilution method. In kind it is functional.
For data set [21], the system named is Clostridium perfringens. Nature of the data set: Antimicrobial activity against Clostridium perfringens ISS 30543 by tube dilution method. The data set is classed as functional.
The test system of data set [22] is Escherichia coli. Nature of the data set: Antimicrobial activity against Escherichia coli infected in mouse at 250 mg/kg, sc. The data set is classed as functional, organism-based. Set-up: dose 250 mg/kg.

As a reminder, the MIC is the smallest concentration in the dilution series that meets the test's criterion for growth inhibition. A lower MIC goes with greater potency. As a reminder, the LD50 is the dose at which mortality reaches 50%. The low end stands for greater toxicity, the high end for lower toxicity.

As for `CC(/C=C/c1cnc([N+](=O)[O-])n1C)=[N+](\C)[O-]`, the MIC in data set [1] is 50 µg/mL (≈ 223 µM); in data set [3] it was more than 100 µg/mL; in data set [4], 100 µg/mL (≈ 446 µM); in data set [5], 50 µg/mL (≈ 223 µM); in data set [6], 50 µg/mL (≈ 223 µM); in [8], 50 µg/mL (≈ 223 µM). Also, the MIC in data set [11] was 100 µg/mL (≈ 446 µM); in data set [12], 100 µg/mL (≈ 446 µM); in data set [13], 100 µg/mL (≈ 446 µM); in data set [14], 100 µg/mL (≈ 446 µM); in data set [15], 50 µg/mL (≈ 223 µM); in [16], more than 100 µg/mL. Further, the MIC in [17] was more than 100 µg/mL; in data set [18] it was 100 µg/mL (≈ 446 µM); in data set [20], more than 100 µg/mL; in data set [21], 10 µg/mL (≈ 44.6 µM). Moreover, the LD50 in data set [2], in data set [9] and in data set [19] was 700 mg/kg in each case. The “Ratio ED50” value in data set [7] was determined as 2.6. Further, the result in [10] and in [22] was inactive.
